Data taken from patent US4386103A, “Dichloroamino acid derivatives useful as potent germicidal and fungicidal agents” (Merck & Co., Inc., priority 1981, dated 1983).

Key:
Type in all cases: cell-based
[1] = tested on: Bacillus subtilis; test: Contact germicidal screen, Bacillus subtilis ATCC No. 60511
Method: (§1) The organisms used in the contact germicidal screen are all maintained as stock cultures on nutrient agar […] 4° C. They are transferred and biochemically diagnosed monthly. The five organisms used are: The media used are: […] Overnight cultures of the test organisms are grown in tryptose phosphate broth. After 15-16 hours, the cultures are centrifuged at […] for 15 minutes, and the supernatant replaced with fresh warm (37° C.) media. After two hours of incubation, the absorbance of the culture at 650 nm is determined and diluted with nutrient broth to 1×10^7 colony forming units per ml (using a previous determined standard curve: colony forming units/ml vs. absorbance at 650). The diluted cultures are maintained at 4°-8° C. throughout the screen. The compounds are weighed into sterile 100 ml volumetric flasks, and immediately before screening dissolved in one of the following buffers: 0.1 M NaOAc pH 4.6 or 0.1 M NaH2 PO4 pH 7.0. If solubility poses a problem, 10-30% methanol is used to effect solution. Two denaturing agents are also tested: […] Horse Serum restored with 100 ml distilled water and 10% Trition×100. When used, 2.5 ml of the denaturing agent is mixed with 2.5 ml of double strength test solution thirty minutes before the bacterial suspension is added. The screen is initiated when 0.2 ml of the bacterial suspension is added to 5.0 ml of the test solution contained in a sterile 25 ml glass stoppered flask. At intervals of 0.5, 2.5, 5.0, 10.0 and 15.0 minutes, a loopful of the inoculated test solution is subcultured into 5 ml of sterile nutrient broth and mixed with a vortex, the high dilution serving to stop the action of the compound. All of the subculture tubes are incubated at 37° C. and checked for signs of growth by turbidity at 1, 3, 5 and 7 days. The earliest subculture time at which no growth is present is considered the endpoint and is recorded as the sterilization time. An aliquot of 0.2 ml of the diluted culture is transferred to 5 ml of buffer to simulate 0.2 ml in 5 ml of test solution. (a) Purity: A loopful of the inoculated buffer is streaked onto nutrient agar to check colony morphology and lack of contaminants. (b) Viability: A loopful of the inoculated buffer is subcultured to 5 ml of nutrient broth as in the screen and incubated at 37° C. for 24 hours. (c) Dilution of the Test Solution: A loopful of the test solution is transferred to a 5 ml tube of nutrient broth, and a loopful of the inoculated buffer is transferred to the same tube of broth. […] (d) Purity of Organisms in the Test Solution: After the 15 minute subculture, a loopful of the inoculated test solution is streaked onto nutrient agar to insure that contamination has not occurred during the screen. (e) lack of Bactericidal Activity of Buffers and Other Solvents: Before a buffer or other solvent is used as a diluent, it is screened against the five organisms to insure that the buffer or solvent has no antibacterial activity itself.

[2] = tested on: Staphylococcus epidermidis; test: Contact germicidal screen, Staphylococcus epidermidis ATCC No. 12228
Method: as §1

[3] = tested on: Trychophyton mentagrophytes; test: Contact fungicidal screen, Trychophyton mentagrophytes; conditions: 0.1M NaOAc pH 4.6
[4] = tested on: Staphylococcus aureus; test: Contact germicidal screen, Staphylococcus aureus ATCC No. 6538
Method: as §1

[5] = 10.0+ PPM, 0.1M NaOAc pH 4.6, screened simultaneously with four other compounds
[6] = 291.4 PPM, Triton X100 (10% solution):pH 4.6 buffer 1:1
[7] = 291.4 PPM, horse serum:pH 4.6 buffer 1:1
[8] = 300 PPM with 50% Horse Serum, 0.1M NaOAc pH 4.6
[9] = 300 PPM with 50% Triton X100, 0.1M NaOAc pH 4.6
[10] = 1000 PPM with 50% Horse Serum, 0.1M NaOAc pH 4.6
[11] = 1024.4 PPM, 0.1M NaH2PO4 pH 7.0
[12] = 1042.0 PPM, horse serum:pH 4.6 buffer 1:1
[13] = 308.0 PPM, Triton X100 (10% solution):pH 4.6 buffer 1:1
[14] = 308.0 PPM, horse serum:pH 4.6 buffer 1:1
[15] = 1000.0 PPM, horse serum:pH 4.6 buffer 1:1
[16] = 1012.3 PPM, 0.1M NaH2PO4 pH 7.0

CC(C)(COC(=O)CCCC(=O)O)N(Cl)Cl [(V), 2-dichloramino-2-methylpropyl-hemiglutarate]
2.5 min: Sterilization Time [1, 5] | Sterilization Time (summary) ([1]; 10 PPM, 0.1M NaOAc pH 4.6) | Sterilization Time ([1]; 99.1 PPM, 0.1M NaOAc pH 4.6) | Sterilization Time (summary) ([1]; 100 PPM, 0.1M NaOAc pH 4.6) | Sterilization Time [1, 11] | Sterilization Time ([2]; 99.1 PPM, 0.1M NaOAc pH 4.6) | Sterilization Time (summary) ([2]; 100 PPM, 0.1M NaOAc pH 4.6) | Sterilization Time [2, 6] | Sterilization Time (summary) [2, 9] | Sterilization Time (summary) [2, 10] | Sterilization Time [2, 12] | Sterilization Time ([3]; 100 PPM) | Sterilization Time ([4]; 99.1 PPM, 0.1M NaOAc pH 4.6) | Sterilization Time (summary) ([4]; 100 PPM, 0.1M NaOAc pH 4.6) | Sterilization Time [4, 6] | Sterilization Time (summary) [4, 9] | Sterilization Time (summary) [4, 10] | Sterilization Time [4, 12]
10.0 min: Sterilization Time ([1]; 106.7 PPM, 0.1M NaH2PO4 pH 7.0) | Sterilization Time [2, 5] | Sterilization Time (summary) ([2]; 10 PPM, 0.1M NaOAc pH 4.6) | Sterilization Time ([2]; 10.0 PPM, 0.1M NaOAc pH 4.6) | Sterilization Time [2, 11] | Sterilization Time [4, 5] | Sterilization Time (summary) ([4]; 10 PPM, 0.1M NaOAc pH 4.6) | Sterilization Time ([4]; 10.0 PPM, 0.1M NaOAc pH 4.6)
0.5 min: Sterilization Time [1, 6] | Sterilization Time (summary) [1, 9] | Sterilization Time ([1]; 911.8 PPM, 0.1M NaOAc pH 4.6) | Sterilization Time (summary) [1, 10] | Sterilization Time (summary) ([1]; 1000 PPM, 0.1M NaOAc pH 4.6) | Sterilization Time [1, 12] | Sterilization Time ([2]; 911.8 PPM, 0.1M NaOAc pH 4.6) | Sterilization Time (summary) ([2]; 1000 PPM, 0.1M NaOAc pH 4.6) | Sterilization Time ([3]; 1000 PPM) | Sterilization Time ([4]; 911.8 PPM, 0.1M NaOAc pH 4.6) | Sterilization Time (summary) ([4]; 1000 PPM, 0.1M NaOAc pH 4.6)
5.0 min: Sterilization Time ([1]; 10.0 PPM, 0.1M NaOAc pH 4.6) | Sterilization Time [1, 7] | Sterilization Time (summary) [1, 8] | Sterilization Time ([3]; 10 PPM) | Sterilization Time [4, 11]
15 min: Sterilization Time ([1]; 10.0 PPM, 0.1M NaH2PO4 pH 7.0) | Sterilization Time ([2]; 10.0 PPM, 0.1M NaH2PO4 pH 7.0) | Sterilization Time ([2]; 106.7 PPM, 0.1M NaH2PO4 pH 7.0) | Sterilization Time [2, 7] | Sterilization Time (summary) [2, 8] | Sterilization Time ([4]; 10.0 PPM, 0.1M NaH2PO4 pH 7.0) | Sterilization Time ([4]; 106.7 PPM, 0.1M NaH2PO4 pH 7.0) | Sterilization Time [4, 7] | Sterilization Time (summary) [4, 8]

CC(C)(CCC(=O)O)N(Cl)Cl [(III), 4-Dichloroamino-4-methylvaleric acid]
0.5 min: Sterilization Time (summary) ([1]; 100 PPM, 0.1M NaOAc pH 4.6) | Sterilization Time ([1]; 102.2 PPM, 0.1M NaOAc pH 4.6) | Sterilization Time (summary) [1, 9] | Sterilization Time [1, 13] | Sterilization Time (summary) [1, 10] | Sterilization Time (summary) ([1]; 1000 PPM, 0.1M NaOAc pH 4.6) | Sterilization Time [1, 15] | Sterilization Time ([1]; 1007.7 PPM, 0.1M NaOAc pH 4.6) | Sterilization Time (summary) ([2]; 100 PPM, 0.1M NaOAc pH 4.6) | Sterilization Time ([2]; 102.2 PPM, 0.1M NaOAc pH 4.6) | Sterilization Time (summary) ([2]; 1000 PPM, 0.1M NaOAc pH 4.6) | Sterilization Time ([2]; 1007.7 PPM, 0.1M NaOAc pH 4.6) | Sterilization Time ([3]; 100 PPM) | Sterilization Time ([3]; 1000 PPM) | Sterilization Time (summary) [4, 10] | Sterilization Time (summary) ([4]; 1000 PPM, 0.1M NaOAc pH 4.6) | Sterilization Time [4, 15] | Sterilization Time ([4]; 1007.7 PPM, 0.1M NaOAc pH 4.6)
2.5 min: Sterilization Time ([1]; 9.6 PPM, 0.1M NaOAc pH 4.6) | Sterilization Time [1, 5] | Sterilization Time (summary) ([1]; 10 PPM, 0.1M NaOAc pH 4.6) | Sterilization Time (summary) [1, 8] | Sterilization Time [1, 14] | Sterilization Time [1, 16] | Sterilization Time (summary) [2, 9] | Sterilization Time [2, 13] | Sterilization Time (summary) [2, 10] | Sterilization Time [2, 15] | Sterilization Time (summary) ([4]; 100 PPM, 0.1M NaOAc pH 4.6) | Sterilization Time ([4]; 102.2 PPM, 0.1M NaOAc pH 4.6) | Sterilization Time (summary) [4, 9] | Sterilization Time [4, 13]
5.0 min: Sterilization Time ([2]; 9.6 PPM, 0.1M NaOAc pH 4.6) | Sterilization Time [2, 16] | Sterilization Time ([3]; 10 PPM) | Sterilization Time [4, 5] | Sterilization Time (summary) ([4]; 10 PPM, 0.1M NaOAc pH 4.6) | Sterilization Time (summary) [4, 8] | Sterilization Time [4, 14] | Sterilization Time [4, 16]
10.0 min: Sterilization Time ([1]; 103.5 PPM, 0.1M NaH2PO4 pH 7.0) | Sterilization Time [2, 5] | Sterilization Time (summary) ([2]; 10 PPM, 0.1M NaOAc pH 4.6) | Sterilization Time (summary) [2, 8] | Sterilization Time [2, 14] | Sterilization Time ([4]; 9.6 PPM, 0.1M NaOAc pH 4.6)
15 min: Sterilization Time ([1]; 9.7 PPM, 0.1M NaH2PO4 pH 7.0) | Sterilization Time ([2]; 9.7 PPM, 0.1M NaH2PO4 pH 7.0) | Sterilization Time ([2]; 103.5 PPM, 0.1M NaH2PO4 pH 7.0) | Sterilization Time ([4]; 9.7 PPM, 0.1M NaH2PO4 pH 7.0) | Sterilization Time ([4]; 103.5 PPM, 0.1M NaH2PO4 pH 7.0)
